Results taken from patent US10350239B2, “Pharmaceutical composition for treating cancer comprising trypsinogen and/or chymotrypsinogen and an active agent selected from a selenium compound, a vanilloid compound and a cytoplasmic glycolysis reduction agent” (Propanc Pty Ltd, priority 2009, dated 2019).
Each block holds one molecule with its values, some of them ahead of it.

Key:
[1] = test system: bFGF-induced angiogenesis; assay: AngioChamber assay (fibrous capsule wet weight); assay type: in vivo; conditions: female FvB mice, once daily Day 0-4, capsule excised Day 5, p<0.05
Excerpt: The AngioChamber™ assay utilises the normal physiological process of wound healing, to promote fibrous capsule formation around an implanted chamber (Wood, J. M., Bold, G., Buchdunger, E., Cozens, R., et al. PTK787/ZK 222584, a Novel and Potent Inhibitor of Vascular Endothelial Growth Factor Tyrosine Kinases, Impairs Vascular Endothelial Growth Factor-Induced Responses and Tumour Growth After Oral Administration. Cancer Research, 60 (8):2178-2189 (2000)). The inclusion of Basic Fibroblast Growth Factor (bFGF) in the chamber supports the fibrouse capsule formation while inducing blood vessel development. […] The fibrous capsule around the chamber was removed and the wet weight recorded. […] The vascularised fibrous capsule that had formed around each chamber was carefully removed and the wet weight recorded immediately. Angiogenesis inhibition by Test Articles (%) was calculated using the following formula: % Inhibition=[(A−B)/(A−C)×100] where A is the mean capsule weight from mice with implanted AngioChambers™ containing growth factor and treated with Vehicle Control (Group 2), B is the mean capsule weight from mice with implanted AngioChambers™ containing growth factor and treated with Test Article (Groups 3-5), and C is the mean capsule weight from mice with implanted AngioChambers™ without growth factor and treated with Vehicle Control (Group 1). […]

[2] = Body weight in the AngioChamber study; assay type: in vivo; conditions: female FvB mice; Day 0 to Day 5; 60 mg/kg p.o. daily
Method: Body weight measurements were recorded for all animals on the first treatment day (Day 0) and then daily until the termination day of the study (Day 5).
Each animal's body weight was measured immediately prior to dosing. The volume of dosing solution administered to each animal was calculated and adjusted based on individual body weight.
All statistical calculations were performed using SigmaStat 3.0 (SPSS Australasia, North Sydney, NSW, Australia). A paired t-test was used to determine the significance in body weight change within a treatment group between Day 0 and the termination day of the study. […] Significant induction of the fibrous capsule formation by bFGF is considered to be essential to accept the study results. A One-Way Analysis of Variance (ANOVA) was performed on the capsule weight data at the end of the study. Where significant differences were found, All Pairwise Multiple Comparison and Multiple Comparison versus Control Group Procedures (Holm-Sidak Method) were performed. A p value of less than 0.05 was considered significant.

[3] = background statement; cited from earlier work
MIAPaCa-2 = assay: CellTiter-Blue cell growth assay, MIAPaCa-2; assay type: cell-based, human; conditions: 72 hours, Tables 11-13
Method: (§1) All the cell lines used in these studies were of human origin and were sourced from the American Type Culture Collection (ATCC) (Rockville, Md., USA).
(§2) The cells were cultured at 37° C. in a humidified cell culture incubator supplied with 95% air/5% CO2.
(§3) Test Article concentrations were tested in triplicates for each cell line. The CellTiter-Blue® Assay was carried out on all plates 72 hours post addition of Test Articles.
(§4) Following incubation of cells in Test Article-containing media, 10 μL of CellTiter-Blue® was added to each well and incubated with cells for up to 4 hours. Fluorescence was measured using a Spectramax Gemini XPS Fluorometer. All data were recorded and entered into Microsoft® Excel spreadsheets for interpretation.
(§5) Data collected from CellTiter-Blue® assays were plotted as dose response curves for IC50 determination, and as isobolograms to assess the type of interaction between Test Article combinations. For IC50 determinations, growth inhibition was calculated and plotted against compound concentration. In these plots, the X-axis (compound concentration) was represented in a logarithmic scale. IC50 concentration was calculated as the half maximal (50%) inhibitory concentration (IC) for each compound using GraphPad Prism version 5.0 for Mac OSX (GraphPad Software, San Diego Calif., USA).

HCT-15 = assay: CellTiter-Blue cell growth assay, HCT-15; assay type: cell-based, human; conditions: 72 hours, Tables 11-13
Method: as §1, §2, §3, §4, §5

HCT-15 cells = assay: Isobolographic combination assay, HCT-15 cells; assay type: cell-based, human
Method: (§6) The dose-response relations of agents can be used to construct a model giving the expected effect of a combination. The combination of drugs A and B shall be termed (da,db) where da and db are doses of A and B. Effect is treated as a mathematical function, E(da,db). E is sometimes expressed as a fractional effect, then the survival fraction is S: S=1-E. Finally, Da and Db are doses of drugs A and B given separately, which produce an isoeffective response with the combination. Isoboles (iso-effect curves) can be constructed based on the assumption that there is no interaction between the drugs used in combination. The combination (da, db) is represented by a point on a graph that has axes representing doses of the individual drugs. […]
(§7) This ratio is also called g value and it used to determine the type of interaction. In this case the calculated isobole is concave. […]
(§8) The initial concentrations for each compound in each cell line were decided based on the calculated IC50 in a way that the IC50 for each drug fell within the concentration in the dilution series. […]
as §4, with “interpretation. […]” for “interpretation.”

[4] = test system: A-549, HCT-15 and MIAPaCa-2 cells; assay: CellTiter-Blue cell growth assay, three selected cell lines together; assay type: cell-based, human
Method: as §1, §2, §3, §4, §5

A-549 cells = assay: Isobolographic combination assay, A-549 cells; assay type: cell-based, human
Method: as §6, §7, §8
as §4, with “interpretation. […]” for “interpretation.”

A549 = assay: CellTiter-Blue cell growth assay, A549; assay type: cell-based, human; conditions: A-549; 72 hours; Tables 11-13
Method: as §1, §2, §3, §4, §5

MIAPaCa-2 cells = assay: Isobolographic combination assay, MIAPaCa-2 cells; assay type: cell-based, human
Method: as §6, §7, §8
as §4, with “interpretation. […]” for “interpretation.”

Molecule: CNC(=O)c1cc(Oc2ccc(NC(=O)Nc3ccc(Cl)c(C(F)(F)F)c3)cc2)ccn1 [Sorafenib]
angiogenesis (capsule wet weight) compared to the Induction Control (Vehicle Control with bFGF) ([1]; JBp1 and JBp1-DCM i.p., Sorafenib 60 mg/kg p.o.): significant reduction in angiogenesis
angiogenesis (capsule wet weight) compared with JBp1 monotherapy [1]: significantly reduced angiogenesis
body weight loss at termination of the study [2]: 5.6%

Molecule: C[Se]CC[C@H](N)C(=O)O [selenomethionine]
toxic level (organic forms of selenium) [3]: about 3500 micrograms daily

IC50 values (MIAPaCa-2): 280 µg/mL
IC50 values (HCT-15): 410 µg/mL
IC50 values, range over all three cell lines [4]: 230 to 410 µg/mL
IC50 values (A549): 230 µg/mL
Molecule: Trypsinogen
Maximum Inhibition (%) (MIAPaCa-2): 82.3%
Maximum Inhibition (%) (HCT-15): 77.2%
type of interaction in combination with chymotrypsinogen (isobolographic, in words) (HCT-15 cells): non-antagonistic interaction
type of interaction in combination with α-amylase (isobolographic, in words) (HCT-15 cells): non-synergistic interaction
type of interaction in combination with chymotrypsinogen (isobolographic, in words) (A-549 cells): wide-range of synergistic interaction
type of interaction in combination with α-amylase (isobolographic, in words) (A-549 cells): narrow-range type
Maximum Inhibition (%) (A549): 75.7%
type of interaction in combination with chymotrypsinogen (isobolographic, in words) (MIAPaCa-2 cells): wide-range of synergistic interaction
type of interaction in combination with α-amylase (isobolographic, in words) (MIAPaCa-2 cells): wide-range type
